Data published in US5461057A, “Hydro-ethano-indeno-pyridines” (priority 1994, dated 1995).

Experiments:
[1] = system: pulmonary resistance; assay: Pulmonary Resistance in the Anesthetized Rat; type: in vivo; settings: 0.5 mpk, i.v., mean of 5 animals, % decrease in pre-drug baseline resistance; for inhibition in vivo at 0.5 mg/kg: Rattus norvegicus, iv, read-out: Pulmonary Resistance in Rats, % Inhibition
Method: Rats (400-500 g) anesthetized with dialurethane were surgically prepared with tracheal and esophageal catheters. These catheters were connected to pressure transducers for recording of air flow, tracheal and esophageal pressures. These pressures formed the basis for measurement of pulmonary resistance. Inhibition of pulmonary resistance is a reflection of bronchodilation.
All compounds were tested i. v. in 5 separate animals. All data are expressed in % decrease in the pre-drug baseline resistance and each number given is the mean of the 5 animals tested.
The model is sensitive to bronchodilator activity.
Further information relating this test can be obtained from the following publications which are hereby incorporated by reference: Comroe et al, J. Appl. Physio. 4:439-44 (1959); Dungan et al J. Pharmacol. Exp. Therap. 164:290-301(1968); and Mead, J. et al. J. Appl. Physio. 5:779-796 (1953).

[2] = system: LOX human melanoma cell adhesion to human fibronectin; assay: LOX melanoma cell adhesion to fibronectin; type: cell-based; settings: Homo sapiens, LOX; for inhibition at 10 µM: read-out: % Inhibition at 10 μM; for inhibition at 50 µM: read-out: % Inhibition at 50 μM; for IC50: Table 4, 1 hour adhesion, read-out: LOX FN IC50
Method: (§1) Adhesion assays were run essentially as described previously (Pai et al., J. Biomed. Res. 2: 53, 1992). 96-well plates were coated with human fibronectin (140 ng/well), human vitronectin (75 ng/well), human collagen I (100 ng/well), human collagen IV (100 ng/well), human fibrinogen (1 μg/well), murine laminin (600 ng/well), or polylysine, and incubated overnight in a humidified 37° C. incubator. Excess fibronectin or other substrate was then removed and 0.2 ml of 2 mg/ml bovine serum albumin (BSA)in Dulbecco's phosphate-buffered saline (DPBS) was added to each well, incubated for 2 hours at 37° C., and removed. LOX human melanoma cells, M27 murine lung carcinoma cells or B16F10 mouse melanoma cells were detached from tissue culture flasks with RPMI medium containing 0.2M urea and 10 mM EDTA, and 0.18 ml of cells were added to each well to a final cell concentration of 1×10^5 cells/well. For inhibition studies 20 μl of 10× compound was added to the wells prior to cell addition. Cells were allowed to adhere for 1 hour at 37° C. The wells were then gently washed twice with 0.2 ml DPBS. The fluorescent dye calcein AM (Molecular Probes, Eugene Oreg.) in DPBS (0.1 ml of 1 μM) was added to each well, and the plates were incubated for 1 hour at room temperature. Adherent cells were quantitated by reading the fluorescence on a Cytofluor 2300 fluorescent plate reader (Millipore) at 485 nm excitation and 530 nm emission.
LOX FN-IC50 value for inhibition of adhesion of LOX human melanoma cells to fibronectin coated on a plastic surface.

[3] = system: histamine-induced dyspnea; assay: Bronchodilator (in vivo) Guinea Pig Dyspnea; settings: oral, one hour before histamine challenge
Method: Unanesthetized guinea pigs (250-350 g), fasted overnight were placed in individual closed aerosol chambers which were connected to a Monoghan Ultrasonic nebulizer. The nebulizer can deliver an ultrasonic fog of uniform particles in a range of 1-8 microns. A 0.1% solution of histamine is aerosolized into the chambers causing the guinea pigs to develop dyspnea. The test drug was given orally one hour before the histamine challenge and the onset of dyspnea was recorded. Saline control animals developed dyspnea within 90-120 seconds of aerosol exposure. […] The data was expressed as the number tested over the number survived. The model was sensitive to bronchodilator and H1 antihistamine activity. Further information relating this test can be obtained from the following two publications which are hereby incorporated by reference: Dungan, K. W. and Lish, P. M. J Allergy 32:139-151 (1961). and Lish, P. M., Robbins, S. I. and Petres E. L. J. Pharmacol. Exp. Therap. 153 L 1538 (1966 ).

[4] = system: TBZ-induced ptosis; assay: Effects on tetrabenazine (TBZ)-induced ptosis in mice; type: in vivo, mouse; settings: Mus musculus, po
Excerpt: Clinically active antidepressant drugs are known to block TBZ-induced ptosis in mice (See Psychosomatic Medicine, Nodine and Moyer, Eds. Lea and Febiger, Philadelphia, 1962, pp 683-90, which is hereby incorporated by reference). Activity in this test is used to predict anti-depressant activity in man.
The procedure for the TBZ-Induced Ptosis Test in Mice is set forth in Psychosomatic Medicine, Nodine and Moyer, Eds. Lea and Febiger, which is hereby incorporated by reference and in PCT/US91/06705, filed 20 Sep. 1991, which is mentioned above.
The results for this test are given below as ED50 's in the units of mg/kg.
TBZ refers to the test of effects on tetrabenazine induced ptosis in mice, p.o.;

[5] = system: acetic acid-induced writhing; assay: Acetic Acid Writhing Test in Mice; type: in vivo, mouse; settings: Mus musculus, po, read-out: WRITH ED50
Excerpt: The blockade of writhing induced by the intraperitoneal injection of acetic acid is an established experimental animal model for the screening of antinociceptive drugs (drugs which prevent the appreciation or transmission of pain sensations).
The procedure for the Acetic Acid Writhing Test in Mice is set forth in Hendershot et al, J. Pharmacol. Exp. Therap. 125:237, (1959); Koster et al., Fed. Proc. 18:412, (1959); and international application PCT/US91/06705, filed 20 Sep. 1991, which are hereby incorporated by reference.
The results for this test are given below in the units of mg/kg which is also abbreviated in this specification as mpk. The results for this test are given as effective doses (ED50 's).

[6] = system: metrazole; assay: Anti-metrazole test in mice; type: in vivo, mouse; settings: Mus musculus, read-out: MTZ ED50
Method: The anti-metrazole test in mice was carried out as described in Everett et al, J. Pharmacol. Exp. Therap. 81:402-407 (1944); which is hereby incorporated by reference.
(§2) The results for this test are given below as ED50's in the units of mg/kg.

[7] = system: LOX human melanoma cell adhesion to polylysine; assay: LOX melanoma cell adhesion to polylysine; type: cell-based; settings: read-out: Poly Lys IC50
Method: as §1

[8] = system: methamphetamine toxicity; assay: Methamphetamine toxicity test in mice; type: in vivo; settings: Mus musculus, read-out: METHA ED50
Method: The methamphetamine toxicity test in mice was carried out as described in Burn et al, Arch. Int. Pharmacodyn 113:290-295, (1958); and Coscia et al, Arzneim-Forsch (Drug Research) 25:1436-1442, (1975); which are hereby incorporated by reference.
as §2
METHA refers to the methamphetamine toxicity test in mice;

[9] = Calcein cytotoxicity assay; type: cell-based; settings: human, lox melanoma cells; 2 hours, calcein AM assay; read-out: 2 Hr Tox LD50
Method: LOX human melanoma cells were detached from tissue culture flasks with RPMI medium containing 0.2M urea and 10 mM EDTA, and 0.18 ml of cells were added to each well to a final cell concentration of 5×10^4 cells/well. 20 μl of 10× compound was added to the wells prior to cell addition. Cells were incubated with the compound at 37° C. for 1 hour or 5 hour as indicated. Calcein AM in DPBS (0.02 ml of 5 μM) was added to each well, and the plates were incubated for an additional 1 hour at room temperature. Viable cells were quantitated by reading the fluorescence on a Cytofluor 2300 fluorescent plate reader at 485 nm excitation and 530 nm emission.

[10] = Cavia porcellus, 1 h, read-out: DYSP survivors (converted)

SMILES	inhibition in vivo at 0.5 mg/kg [1]	inhibition at 10 µM [2]	inhibition at 50 µM [2]	responders at 50 mg/kg [3, 10]	responders at 100 mg/kg ([3]; Cavia porcellus, 1 h, 100 mg/kg, read-out: DYSP survivors (converted))	ED50 [4]	ED50 [5]	ED50 [6]	IC50 [7]	ED50 [8]	CC50 at 2 h [9]	Pulmonary Resistance in Rats, % Inhibition [1]	IC50 [2]	DYSP survivors ([3]; 100 mg/kg)
CN1C2CCC1C1c3ccccc3C(O)(c3cccc(Cl)c3)C1C2 (stereo not shown) [QQ]	-30%	9.2%	21.1%	33.3%										
CN1C2CCC1C1c3ccccc3C(O)(c3cccc(F)c3)C1C2 (stereo not shown) [RR]	28%	13.8%	17.6%	0%	66.7%									
COc1ccc(C2=C3CC4CCC(C3c3ccccc32)N4C)cc1 (stereo not shown) [R]		-27.3%	97.1%			17.3 mg/kg	> 30 mg/kg	> 30 mg/kg	112 µM	> 30 mg/kg	138 µM	26%	15 µM	1/3
CN1C2CCC1C1c3ccccc3C(O)(c3ccccc3C(F)(F)F)C1C2 (stereo not shown) [TT]	7%	16.7%	16.1%	0%										
COc1ccc2c(c1)C1C3CCC(CC1C2(O)c1ccccc1)N3C (stereo not shown) [UU]	2%	10.3%	15.9%			> 30 mg/kg	17.3 mg/kg	> 30 mg/kg		> 30 mg/kg				
COc1ccc2c(c1)C(c1ccccc1)=C1CC3CCC(C12)N3C (stereo not shown) [V]						> 30 mg/kg								0/3
CN1C2CCC1C1c3ccccc3C(O)(c3ccc4c(c3)OCO4)C1C2 (stereo not shown) [WW]	39%	1.2%	11.9%											
COc1ccc2c(c1)C1=C(CC3CCC1N3C)C2c1ccccc1 (stereo not shown) [Z]		-27.6%	67%			> 30 mg/kg	17.3 mg/kg	> 30 mg/kg	> 250 µM	> 30 mg/kg	> 250 µM		28.1 µM	0/3
